Test results taken from ChEMBL document CHEMBL3044869, “Cross-resistance patterns and fitness in fufenozide-resistant diamondback moth, Plutella xylostella (Lepidoptera: Plutellidae)” (2012).
In brackets after ≈: the same amount, converted by molar mass.

Experiments:
Type in all cases: functional
Plutella xylostella [1] = test: Insecticidal activity against third-instar larvae of fufenozide-resistant Plutella xylostella (diamondback moth) assessed as mortality by leaf-dip bioassay method
Plutella xylostella [2] = test: Resistance ratio, ratio of LC50 for third-instar larvae of fufenozide-resistant Plutella xylostella (diamondback moth) to LC50 for third-instar larvae of fufenozide-susceptible Plutella xylostella
Plutella xylostella [3] = test: Insecticidal activity against third-instar larvae of fufenozide-susceptible Plutella xylostella (diamondback moth) assessed as mortality by leaf-dip bioassay method

CC[C@H]1CCC[C@H](O[C@H]2CC[C@H](N(C)C)[C@@H](C)O2)[C@@H](C)C(=O)C2=C[C@@H]3[C@@H](C=C(C)[C@@H]4C[C@@H](O[C@@H]5O[C@@H](C)[C@H](OC)[C@@H](OC)[C@H]5OC)C[C@@H]34)[C@@H]2CC(=O)O1.CC[C@H]1CCC[C@H](O[C@H]2CC[C@H](N(C)C)[C@@H](C)O2)[C@@H](C)C(=O)C2=C[C@@H]3[C@@H](C=C[C@@H]4C[C@@H](O[C@@H]5O[C@@H](C)[C@H](OC)[C@@H](OC)[C@H]5OC)C[C@@H]34)[C@@H]2CC(=O)O1
LC50 (Plutella xylostella [1]): 0.439 µg/mL
RatioLC50 (Plutella xylostella [2]): 2.34
LC50 (Plutella xylostella [3]): 0.188 µg/mL

CC[C@H](C)[C@H]1O[C@]2(C=C[C@@H]1C)C[C@@H]1C[C@@H](C/C=C(\C)[C@@H](O[C@H]3C[C@H](OC)[C@@H](O[C@H]4C[C@H](OC)[C@@H](O)[C@H](C)O4)[C@H](C)O3)[C@@H](C)/C=C/C=C3\CO[C@@H]4[C@H](O)C(C)=C[C@@H](C(=O)O1)[C@]34O)O2.CO[C@H]1C[C@H](O[C@H]2[C@H](C)O[C@@H](O[C@@H]3/C(C)=C/C[C@@H]4C[C@@H](C[C@]5(C=C[C@H](C)[C@@H](C(C)C)O5)O4)OC(=O)[C@@H]4C=C(C)[C@@H](O)[C@H]5OC/C(=C\C=C\[C@@H]3C)[C@]54O)C[C@@H]2OC)O[C@@H](C)[C@@H]1O [ABAMECTIN]
LC50 (Plutella xylostella [1]): 7.87 µg/mL
RatioLC50 (Plutella xylostella [2]): 7.02
LC50 (Plutella xylostella [3]): 1.12 µg/mL

CC1(C)[C@H](C=C(Cl)Cl)[C@H]1C(=O)O[C@@H](C#N)c1cccc(Oc2ccccc2)c1 [BETA-CYPERMETHRIN]
LC50 (Plutella xylostella [1]): 47.5 µg/mL (≈ 114 µM)
RatioLC50 (Plutella xylostella [2]): 1.35
LC50 (Plutella xylostella [3]): 35.2 µg/mL (≈ 84.6 µM)

CCOCn1c(-c2ccc(Cl)cc2)c(C#N)c(Br)c1C(F)(F)F [CHLORFENAPYR]
LC50 (Plutella xylostella [1]): 3.3 µg/mL (≈ 8.1 µM)
RatioLC50 (Plutella xylostella [2]): 1.11
LC50 (Plutella xylostella [3]): 2.96 µg/mL (≈ 7.26 µM)

CCOP(=S)(OCC)Oc1nc(Cl)c(Cl)cc1Cl [CHLORPYRIFOS]
LC50 (Plutella xylostella [1]): 215 µg/mL (≈ 613 µM)
RatioLC50 (Plutella xylostella [2]): 1.75
LC50 (Plutella xylostella [3]): 122 µg/mL (≈ 349 µM)

O=C(NC(=O)c1c(F)cccc1F)Nc1ccc(Cl)cc1 [DIFLUBENZURON]
LC50 (Plutella xylostella [1]): 342 µg/mL (≈ 1100 µM)
RatioLC50 (Plutella xylostella [2]): 17.2
LC50 (Plutella xylostella [3]): 19.9 µg/mL (≈ 64.1 µM)

Cc1cc(C)cc(C(=O)N(NC(=O)c2ccc3c(c2C)OC(C)C3)C(C)(C)C)c1 (centres undefined) [FUXIAN]
LC50 (Plutella xylostella [1]): 676 µg/mL (≈ 1710 µM)
RatioLC50 (Plutella xylostella [2]): 302.8
LC50 (Plutella xylostella [3]): 2.23 µg/mL (≈ 5.65 µM)

O=C(NC(=O)c1c(F)cccc1F)Nc1cc(Cl)c(OC(F)(F)C(F)F)c(Cl)c1 [HEXAFLUMURON]
LC50 (Plutella xylostella [1]): 274 µg/mL (≈ 594 µM)
RatioLC50 (Plutella xylostella [2]): 28.7
LC50 (Plutella xylostella [3]): 9.56 µg/mL (≈ 20.7 µM)

CNC(=O)ON=C(C)SC [METHOMYL]
LC50 (Plutella xylostella [1]): 130 µg/mL (≈ 798 µM)
RatioLC50 (Plutella xylostella [2]): 1.92
LC50 (Plutella xylostella [3]): 67.4 µg/mL (≈ 416 µM)

COc1cccc(C(=O)NN(C(=O)c2cc(C)cc(C)c2)C(C)(C)C)c1C [METHOXYFENOZIDE]
LC50 (Plutella xylostella [1]): 276 µg/mL (≈ 748 µM)
RatioLC50 (Plutella xylostella [2]): 37.6
LC50 (Plutella xylostella [3]): 7.33 µg/mL (≈ 19.9 µM)

CCOP(=S)(OCC)O/N=C(\C#N)c1ccccc1 [PHOXIM]
LC50 (Plutella xylostella [1]): 161 µg/mL (≈ 540 µM)
RatioLC50 (Plutella xylostella [2]): 1.58
LC50 (Plutella xylostella [3]): 102 µg/mL (≈ 341 µM)

CC(C)(C)N(NC(=O)c1ccccc1)C(=O)c1ccccc1 [RH-5849]
LC50 (Plutella xylostella [1]): 114 µg/mL (≈ 385 µM)
RatioLC50 (Plutella xylostella [2]): 10.8
LC50 (Plutella xylostella [3]): 10.6 µg/mL (≈ 35.8 µM)

CCc1ccc(C(=O)NN(C(=O)c2cc(C)cc(C)c2)C(C)(C)C)cc1 [TEBUFENOZIDE]
LC50 (Plutella xylostella [1]): 353 µg/mL (≈ 1000 µM)
RatioLC50 (Plutella xylostella [2]): 27.9
LC50 (Plutella xylostella [3]): 12.6 µg/mL (≈ 35.7 µM)
